# Legend:
# [1] = system: LPS treated mice; test: Mouse model of ALI induced by intra-tracheal LPS: BALF, weight, histopathology, MPO, lung mechanics, cytokines; assay type: in vivo
# Procedure: The Committee on Animal Research at Georgia Regents University approved all animal protocols and procedures. Stock solutions of Escherichia coli LPS (0111:B4) were prepared in saline. […] Mice were examined 24 h after LPS treatment. At the end of the treatment lungs were flushed with 3 ml of ice-cold PBS (5 mM EDTA), excised, dipped in saline and blotted dry. A portion of the lung was quickly snap-frozen in liquid nitrogen, crushed to powder in a pre-chilled mortar and stored at −80° C. The remaining lung tissue was stored at −80° C.
# Isolation of Bronchoalveolar Lavage Fluid (BALF) BALF was obtained by instilling and withdrawing 1 mL of PBS via a tracheal cannula. Part of the solution was used to determine protein levels in the BALF. In addition, cells were pelleted at 2,500 g for 10 min and resuspended in water for 15 sec to lyse red blood cells. Leukocytes were resuspended in 1 ml PBS, and total cell count determined using a haemocytometer.
# Mice were anesthetized with pentobarbital (90 mg/kg, i.p.), tracheostomized with a metal 1.2 mm (internal diameter) cannula and connected to a Flexi Vent (Scireq Inc) ventilator. Ventilation was initiated at a tidal volume of 10 ml/kg and a rate of 150/min. A TLC maneuver was performed, followed by 15 sec later, by a sinusoidal 1 Hz oscillation. Subsequently, an 8 sec forced oscillatory signal (0.5-19.6 Hz) was applied, the mechanical input impedance of the respiratory system was calculated, and a model containing a constant phase tissue compartment was fit to input impedance in order to evaluate tissue elastance. Dynamic pressure-volume maneuvers were performed by step-wise increasing the airway pressure to 30 cm H2O and then reversing the process.
# Lungs were inflated with 10% formalin under 15 cm H2O pressure and immersed in the same solution before tissue processing into paraffin embedded blocks and 4 μm sections were then cut stained with H&E. Histopathological assessment was conducted by two researchers who were masked to treatment group. H&E stained sections were scored for the presence of neutrophil in the alveolar space, neutrophils in the interstitial space, the existence of hyaline membranes, proteinaceous debris filling the airspaces and alveolar septal thickening as described previously (Matute-Bello, et al., Am. J. Respir. Cell Mol. Biol. 44, 725-738 (2011)).
# Sections (5 μm) were cut from paraffin blocks and mounted on treated slides (Superfrost+). Slides were air dried overnight, placed in a 60° C. oven for 30 min, deparaffinized in xylene and run through graded alcohol to distilled water. Endogenous peroxidase was quenched with 0.3% H2O2 for 5 min, followed by two rinses with distilled water. Slides were pretreated with Target pH 6, (Dako), rinsed in distilled water, incubated in Power Block (Biogenex), rinsed in distilled water, placed in PBS for 5 min, incubated with primary antimyeloperoxidase (Cappel, 1:2000 dilution) for 30 min at 25° C. After two rinses in PBS, slides were incubated with a peroxidase-labeled polymer conjugated to goat anti-rabbit secondary IgG (Envision+, Dako) for 30 min and rinsed in PBS. Bound antibody was detected with the DAB+ substrate kit, (Dako). Hematoxylin was used as a counter-stain. MPO-stained slides were then evaluated by scoring (0-4) for the presence of neutrophils within the alveolar walls.
# Analytes (pg/mL) were assessed with the MCYTOMAG70K assay (EMD Millipore) as previously described (Lucas, R., et al., Proc. Natl. Acad. Sci. USA 109, 2084-2089 (2012)).
# Mice were used to perform additional physiological, biochemical and morphological studies to evaluate the efficacy of the NipR1 peptide in attenuating symptoms of ALI. […] After 24 h, mice were anesthetized and BALF was collected. Measurements of lung mechanics were also carried out.
# [2] = system: HLMVEC; test: Total protein nitration (3-NT/β-actin) in LPS-treated HLMVEC; assay type: cell-based, human; settings: peptide 100 ng/ml 30 min, then LPS 1 EU/ml
# Description: Cell extracts were separated on 4-20% gels and electrophoretically transferred to PVDF membrane (Bio-Rad), then blocked with 5% nonfat dry milk in Tris-buffered saline. The membranes were probed with antibodies to RhoA (Cell Signaling), eNOS (BD), iNOS (Cell Signaling), or 3-Nitrotyrosine (Calbiochem). Reactive bands were visualized using chemi-luminescence (Pierce) on a Kodak 440CF image station. Band intensity was quantified using Kodak 1D image processing software. Protein loading was normalized by re-probing with mouse anti-β-actin.
# [3] = biological target: T1, RhoA (Mus musculus, UniProt Q9QUI0); test: RhoA activity, nitration and protein in lungs of LPS treated mice; assay type: in vivo
# T1 construct: from tissue; host or cells: mouse lung (male C57Bl/6)
# Procedure: The Committee on Animal Research at Georgia Regents University approved all animal protocols and procedures. Stock solutions of Escherichia coli LPS (0111:B4) were prepared in saline. […] Mice were examined 24 h after LPS treatment. At the end of the treatment lungs were flushed with 3 ml of ice-cold PBS (5 mM EDTA), excised, dipped in saline and blotted dry. A portion of the lung was quickly snap-frozen in liquid nitrogen, crushed to powder in a pre-chilled mortar and stored at -80° C. The remaining lung tissue was stored at -80° C. […] After 24 h, mice were sacrificed and lung tissue was obtained to determine RhoA activity and RhoA nitration, LPS induced RhoA activation in the mouse lung as in HLMVEC (FIG. 7A). […] Total RhoA protein levels and basal RhoA nitration were measured. […] Likewise, basal RhoA nitration levels (FIG. 7D) were unchanged.
# [4] = system: human lung microvascular endothelial cells (HLMVEC); test: Endothelial monolayer resistance (ECIS, TER) in LPS-challenged HLMVEC; assay type: cell-based; settings: HLMVEC, peptide 100 ng/ml 30 min, then LPS 1 EU/ml
# Procedure: The electrical resistance of the endothelial cell monolayer was measured with the electrical cell impedance sensor (ECIS) technique. In this system, the cells are cultured on gold plated electrodes. The change in resistance across the monolayer is measured through an amplifier attached to the arrays. Each study was performed when the resistance reached a plateau. The data was normalized to the initial voltage and plotted as a normalized resistance.
# To examine if protein nitration by peroxynitrite is a contributing factor in endothelial barrier disruption in response to LPS, transendothelial resistance (TER) was measured in HLMVEC in the presence or absence of the peroxynitrite scavenger, MnTmPyp. HLMVEC were challenged with LPS (1 EU/ml) in the presence or absence of the peroxynitrite scavenger, MnTMPyP (25 μM).
# To evaluate the role played by NOS in the barrier dysfunction, HLMVEC were exposed to LPS in the presence or absence of ETU (a non-specific NOS inhibitor) or 1400W (to inhibit iNOS). HLMVEC were challenged with LPS (1 EU/ml) in the presence or absence of the general NOS inhibitor, ETU (200 μM) or the iNOS specific inhibitor, 1400W (100 μM). The LPS-mediated decrease in TER was attenuated in the presence of ETU, but not 1400W (FIG. 1B). The important role of eNOS was then confirmed using a siRNA approach. HLMVEC were transiently transfected with a siRNA against eNOS or a scrambled control siRNA. After 48 h, there was a significant knockdown of eNOS protein levels (50%), as determined by Western blotting. Reducing eNOS protein levels preserved HLMVEC barrier function when challenged with LPS (FIG. 1C).
# [5] = system: HLMVEC; test: Gaps formation between cells (ZO-1 immunofluorescence) in HLMVEC; assay type: cell-based, human; settings: peptide 100 ng/ml, LPS 1 EU/ml
# Procedure: HLMVEC were grown on gelatin-coated coverslips and exposed to LPS in the presence or absence of the NipR1 peptides. The cells were permeabilized and blocked for 1 h at 25° C. in 5% BSA blocking buffer. A primary antibody against ZO-1 (Invitrogen, 1:100 dilution) was added. Plates were incubated overnight at 4° C. then a secondary antibody (AlexaFluor) was added for 2 h. Slides were examined with Zeiss immunofluorescence microscope Axio Observer D1. The gaps between the cells were calculated using Zeiss Axio Observer software.
# [6] = biological target: T2, RhoA (Homo sapiens, UniProt P61586, Y34F); test: Stopped-flow kinetic analysis of mant-GDP/mant-GTP binding to RhoA; settings: stop-flow analysis, purified Y34F RhoA
# T2 construct: polyHis (6His); made in house; host or cells: Escherichia coli BL21
# Procedure: RhoA was treated with authentic peroxynitrite (500 μM, 30 min) to induce tyrosine nitration in buffered solution. For kinetic analyses, 2 μM of either mart-GTP or -GDP was mixed with RhoA (0.1 μM) in a stopped-flow instrument (SX-20, […]). Increases in fluorescent intensity mant-nucleotide binding to RhoA were then measured using excitation 350 nm and cutoff filter 395 nm for 0.2-1 second. Acquired kinetic curves for 3-5 experiments were averaged and fitted using the Pro-kineticist software to determine observed binding constants.
# To test the validity of the MD data kinetic studies were performed. His-tagged human RhoA construct was expressed in the Escherichia con BL21 strain. First, the bacterial lysate was purified by 6His-tag affinity on a Ni-NTA column. Second, the proteins in the elution fraction from the affinity purification were separated by size-exclusion chromatography (FIG. 11). The fraction containing RhoA was identified both by Coomassie blue staining and Western blot analysis. The recombinant purified RhoA was subjected to rapid flow kinetics to evaluate GDP and GTP binding using fluorescently labeled guanine nucleotides. Peroxynitrite decreases GDP binding to purified RhoA. Human recombinant RhoA was exposed to authentic peroxynitrite (100 μM, 30 min) on ice. […]
# [7] = peptide i.p. 0.1 mg/kg 6 h prior to i.t. LPS 2 mg/kg, 24 h
# T1 sequence (Q9QUI0 whole entry): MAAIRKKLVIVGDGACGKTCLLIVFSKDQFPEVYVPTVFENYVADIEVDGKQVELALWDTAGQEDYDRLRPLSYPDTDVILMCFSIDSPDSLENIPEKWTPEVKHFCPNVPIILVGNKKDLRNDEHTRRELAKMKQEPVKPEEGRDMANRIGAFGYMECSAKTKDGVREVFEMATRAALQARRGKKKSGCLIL
# T2 sequence (P61586 whole entry Y34F): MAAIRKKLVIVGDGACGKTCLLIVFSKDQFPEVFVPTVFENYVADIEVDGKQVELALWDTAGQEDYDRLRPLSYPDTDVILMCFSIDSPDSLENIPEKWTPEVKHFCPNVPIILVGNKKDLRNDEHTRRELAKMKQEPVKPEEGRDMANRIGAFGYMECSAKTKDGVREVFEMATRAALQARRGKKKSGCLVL
substance,measurement,setting,value
HRKKRRQRRRQFPVYVPTVF (SEQ ID NO:25) (Human immunodeficiency virus) [NipR1],LPS-mediated induction of multiple pro-inflammatory cytokines and chemokines in BALF,"[1]; LPS + NipR1 vs LPS, MCYTOMAG-70K assay",attenuated
same,Attenuation of LPS induced increase in MPO staining in the alveolar space,[1]; [7],attenuated
same,Attenuation of LPS-induced increase in total white blood cell counts in BALF,[1]; [7],attenuated
same,MPO activity in lung homogenates after LPS,[1]; [7],attenuated
same,Prevention of LPS-induced reduction in lung elastance (dynamic pressure-volume relationships),[1]; [7],prevented
same,Prevention of weight loss associated with LPS exposure,[1]; [7],able to prevent
same,Reduction of LPS-induced histopathological changes in the lungs (H&E),[1]; [7],reduced
same,Inflammatory response induced by LPS,[1]; peptide i.p. prior to i.t. LPS,reduced
same,Increase in total protein nitration induced by LPS,[2],unaffected
same,Basal RhoA nitration levels in mouse lung,"[3]; peptide alone, no LPS",unchanged
same,Attenuation of LPS-mediated increase in RhoA activity in the mouse lung,[3]; [7],attenuated
same,Attenuation of LPS-mediated increase in RhoA nitration in the mouse lung,[3]; [7],attenuated
same,Total RhoA protein levels in mouse lung,"[3]; peptide i.p. 0.1 mg/kg, with or without LPS",Neither peptide nor LPS treatment altered
same,Attenuation of LPS-mediated disruption of the HLMVEC barrier (preservation of TER),[4],attenuated
same,Cell-cell gaps after LPS,[5],reduction
Y34FRhoA: purified RhoA mutant protein in which the tyrosine residue (Y) was replaced by phenylalanine,Binding of GTP (mant-GTP) to RhoA mutant,[6],No binding

# Source: US9447157B2, “Nitration shielding peptides and methods of use thereof” (Augusta University Research Institute, Inc., priority 2013, dated 2016)
